How the values were obtained:
[1] = biological target: T1, KRAS-G12C/SOS1 (Homo sapiens, UniProt Q07889); assay: Blocking the binding of KRAS G12C protein to SOS1 (Cisbio KRAS-G12C/SOS1 binding assay kit, TR-FRET); details: Tag1-SOS1 and Tag2-KRAS-G12C, TR-FRET 665/620; read-out: IC50 (nM) Inhibition of KRAS-G12C/SOS1 binding
T1 construct: purchased Cisbio 63ADK000CB16PEG
T1 sequence (Q07889 1-1333): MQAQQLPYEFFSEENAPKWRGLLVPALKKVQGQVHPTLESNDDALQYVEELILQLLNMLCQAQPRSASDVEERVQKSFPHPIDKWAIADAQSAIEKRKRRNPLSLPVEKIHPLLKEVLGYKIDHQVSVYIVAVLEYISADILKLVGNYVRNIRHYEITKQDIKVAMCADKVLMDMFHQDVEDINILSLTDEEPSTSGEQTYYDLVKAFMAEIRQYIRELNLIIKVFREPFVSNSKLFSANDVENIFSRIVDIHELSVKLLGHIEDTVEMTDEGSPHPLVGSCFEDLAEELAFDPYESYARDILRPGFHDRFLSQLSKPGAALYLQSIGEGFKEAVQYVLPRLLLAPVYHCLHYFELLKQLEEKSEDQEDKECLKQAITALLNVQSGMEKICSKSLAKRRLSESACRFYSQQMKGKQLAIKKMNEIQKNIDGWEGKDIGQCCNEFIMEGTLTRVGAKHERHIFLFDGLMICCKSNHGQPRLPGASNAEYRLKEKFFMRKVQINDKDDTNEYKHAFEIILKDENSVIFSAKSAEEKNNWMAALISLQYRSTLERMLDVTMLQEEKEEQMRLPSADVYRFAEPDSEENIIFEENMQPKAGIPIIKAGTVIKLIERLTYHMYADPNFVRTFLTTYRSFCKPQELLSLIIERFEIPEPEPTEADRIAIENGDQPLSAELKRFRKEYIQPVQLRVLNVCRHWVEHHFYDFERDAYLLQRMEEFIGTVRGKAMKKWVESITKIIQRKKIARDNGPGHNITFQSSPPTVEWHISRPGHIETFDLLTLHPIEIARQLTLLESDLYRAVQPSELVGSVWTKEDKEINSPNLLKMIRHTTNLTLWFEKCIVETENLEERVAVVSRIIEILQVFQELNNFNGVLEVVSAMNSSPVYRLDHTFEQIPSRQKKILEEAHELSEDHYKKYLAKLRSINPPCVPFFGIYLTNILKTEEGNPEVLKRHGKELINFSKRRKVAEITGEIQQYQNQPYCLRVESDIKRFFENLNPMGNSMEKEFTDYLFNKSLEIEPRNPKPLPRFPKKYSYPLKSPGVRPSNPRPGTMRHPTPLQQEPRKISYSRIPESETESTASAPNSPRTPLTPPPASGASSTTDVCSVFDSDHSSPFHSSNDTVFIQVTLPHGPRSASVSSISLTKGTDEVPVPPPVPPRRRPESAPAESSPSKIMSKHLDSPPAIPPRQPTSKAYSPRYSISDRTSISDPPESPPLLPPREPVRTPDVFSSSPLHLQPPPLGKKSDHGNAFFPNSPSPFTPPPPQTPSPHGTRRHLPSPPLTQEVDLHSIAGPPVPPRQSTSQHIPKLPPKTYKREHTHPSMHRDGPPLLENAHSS
From the text: The following method was used to determine the abilities of compounds of the invention to block the interaction of SOS1 with the KRAS G12C protein in vitro. KRAS-G12C/SOS1 BINDING ASSAY KITS (Art. No. 63ADK000CB16PEG) from Cisbio was used in this method. Please refer to the kit instruction for detailed experimental operations.
The experimental process can be briefly described as follows: diluent buffer (Art. No. 62DLBDDF) was used to prepare a working solution with a concentration of 5× for Tag1-SOS1 and Tag2-KRAS-G12C protein. The test compounds were dissolved in DMSO to prepare storage solutions of 10 mM, and then the solutions were diluted with dilution buffer for later use. First, 2 μL of the test compound (the final concentrations of the reaction system were 10000 nM-0.1 nM) was added to the well, then 4 μL of Tag1-SOS1 5× working solution and 4 μL of Tag2-KRAS-G12C 5× working solution were added, and the above mixture was centrifuged, mixed, and stood for 15 minutes; then 10 μL of premixed anti-Tag1-Tb^3+ and anti-Tag2-XL665 were added, and the mixture was incubated at room temperature for 2 hours; finally, a microplate reader was used in […] mode to measure the fluorescence intensity of each well emitting wavelengths of 620 nm and […] under the excitation wavelength of 304 nm, and the fluorescence intensity ratio 665/620 in each well was calculated. Compared with the fluorescence intensity ratio of a control group (0.1% DMSO), the percentage inhibition rates of the test compounds at each concentration were calculated, and the IC50 values of the compounds were obtained by performing nonlinear regression analysis with logarithmic values of the compound concentration-inhibition rate by GraphPad Prism 5 software, which was shown in Table 1.

[2] = system: NCI-H358 cells; assay: Inhibition of NCI-H358 cell proliferation under 3D non-anchored conditions (CellTiter-Glo 3D); assay type: cell-based; details: Homo sapiens, NCI-H358 cells (KRAS G12C mutation), 120 hours
Experimental: The following method was used to determine the effects of the compounds of the present invention on NCI-H358 cell proliferation under three-dimensional (3D) non-anchored conditions. NCI-H358 cells (containing KRAS G12C mutation) were purchased from the Cell Resource Center of Shanghai Institutes for Biological Sciences, Chinese Academy of Sciences, and cultured in RPMI 1640 medium containing 10% fetal bovine serum, 100 U penicillin, 100 μg/mL streptomycin and 1 mM Sodium Pyruvate. The activities of the cells were determined by CellTiter-Glo® 3D Cell Viability Assay Kit (Promega, Art. No. G9683).
The experimental method was operated according to the steps in the kit instruction, which can be briefly described as follows: the test compounds were first dissolved in DMSO to prepare storage solutions of 10 mM, and then diluted with culture mediums to prepare test samples. The final concentrations of the compounds were 10000 nM to 0.15 nM. Cells in logarithmic phase were inoculated in an ultra-low adsorption 384-well cell culture plate (PerkinElmer, #3830) with 2000 cells per well, and the test compounds were added and cultured for 120 hours. After the culture was completed, 30 μL of CellTiter-Glo 3D detection solution was added to each well, shaken for 30 minutes and then stood for 120 minutes. Then, a Luminescence mode was used to read the luminescence values of each well of the samples on a microplate reader. By comparing with the numerical value of a control group (0.1% DMSO), the percentage inhibition rates of the compounds at each concentration were calculated, and the IC50 values of the compounds inhibiting cell proliferation were obtained by performing nonlinear regression analysis with logarithmic values of the compound concentration-inhibition rate by GraphPad Prism 5 software, which can be seen in Table 4.

Structure (SMILES) | IC50 [1] | IC50 [2]
COc1cc2nc(C)nc(N[C@H](C)c3cccc(C#N)c3C)c2cc1N1CCOCC1 [Compound 1, (R)-3-(1-((7-methoxy-2-methyl-6-morpholinoquinazolin-4-yl)amino)ethyl)-2-methylbenzonitrile] | 26.2 nM | 78.3 nM
COc1cc2nc(C)nc(N[C@H](C)c3cccc(C#N)c3C)c2cc1N1CCN(C(C)=O)CC1 [Compound 2, (R)-3-(1-((6-(4-acetylpiperazin-1-yl)-7-methoxy-2-methylquinazolin-4-yl)amino)ethyl)-2-methylbenzonitrile] | 20.7 nM | 49.6 nM
COc1cc2nc(C)nc(N[C@H](C)c3cccc(C#N)c3C)c2cc1N1CCC2(CCOCC2)CC1 [Compound 4, (R)-3-(1-((7-methoxy-2-methyl-6-(3-oxa-9-azaspiro[5.5]undecan-9-yl)quinazolin-4-yl)amino)ethyl)-2-methylbenzonitrile] | 65.2 nM | 7 nM
COc1cc2nc(C)nc(N[C@H](C)c3cccc(C#N)c3C)c2cc1N1CCC2(CC1)COC2 [Compound 5, (R)-3-(1-((7-methoxy-2-methyl-6-(2-oxa-7-azaspiro[3.5]nonan-7-yl)quinazolin-4-yl)amino)ethyl)-2-methylbenzonitrile] | 28 nM | 10.7 nM
COc1cc2nc(C)nc(N[C@H](C)c3cccc(C#N)c3C)c2cc1N1CCC2(CCN(C)C2=O)CC1 [Compound 7, (R)-3-(1-((7-methoxy-2-methyl-6-(2-methyl-1-oxo-2,8-diazaspiro[4.5]decan-8-yl)quinazolin-4-yl)amino)ethyl)-2-methylbenzonitrile] | 35.7 nM | –
COc1cc2nc(C)nc(N[C@H](C)c3cccc(C#N)c3C)c2cc1N1CCC(C#N)CC1 [Compound 8, (R)-1-(4-((1-(3-cyano-2-methylphenyl)ethyl)amino)-7-methoxy-2-methylquinazolin-6-yl)piperidine-4-carbonitrile] | 62 nM | –
COc1cc2nc(C)nc(N[C@H](C)c3cccc(C#N)c3C)c2cc1N1CCC(C)(O)CC1 [Compound 11, (R)-3-(1-((6-(4-hydroxy-4-methylpiperidin-1-yl)-7-methoxy-2-methylquinazolin-4-yl)amino)ethyl)-2-methylbenzonitrile] | 39.5 nM | 71.4 nM
COc1cc2nc(C)nc(N[C@H](C)c3cccc(C#N)c3C)c2cc1N1CCC2(CC1)CN(C(C)=O)C2 [Compound 19, (R)-3-(1-((6-(2-acetyl-2,7-diazaspiro[3.5]nonan-7-yl)-7-methoxy-2-methylquinazolin-4-yl)amino)ethyl)-2-methylbenzonitrile] | 22.3 nM | 21.2 nM

— US20240382475A1, “Quinazoline Derivative, Or Preparation Method Therefor And Use Thereof” (Zhejiang Hisun Pharmaceutical Co., Ltd., priority 2021, published 2024)
